Results as given in article PMC6014988, “Precision therapeutic targeting of human cancer cell motility” (Nature Communications, 2018).

Columns and labels:
PC3-M cells = experiment: Boyden chamber cell invasion assay, PC3-M cells; assay type: cell-based, human
Method: Boyden chamber cell invasion assays were performed as previously described by us[30], using either denatured collagen (BD Biosciences) or type IV human collagen (BD Biosciences), with all experiments repeated, each in N = 4 replicates. In some experiments, as indicated, cells were transfected with an expression plasmid, using Lipofectamine 2000™ (Invitrogen), or with siRNA, using DharmaFect Duo (Thermo Scientific) and co-transfected with β-Galactosidase (Plasmid pCMV•SPORT-βgal; Life Technology). […]
For cell invasion, PC3-M cells […]
were treated with 10 µM compound for a total of 3 days, and cell invasion assays were run at the end of the 3 day period, in the presence of compound. Values are the mean±SEM of three separate experiments, each run in replicates of N=3. […]
assays were performed with PC3-M cells. Values are the mean±SEM of a single experiment, in replicates of N=4, repeated at least once (also N=4). […]

[1] = tested on: over 400 different protein kinases and 20 phosphatases; experiment: Kinase and phosphatase inhibition, three in vitro assay systems; assay type: biochemical
Method: Initial assays were performed with PC3 and PC3-M cells (PC3 cell data not shown). However, as these studies yielded similar findings, subsequent screening assays utilized only PC3-M cells. In designing chemical synthetic routes, priority was given to efficacy and toxicity parameters. Additional design features were also included in our chemical […]
toxicity parameters. These additional design features included removal of fragments that mediated genistein binding to the estrogen receptor (ER), as determined by ER-genistein 3D x-ray crystal structures (Protein Data Base IDs:1X7R and 1X7J, for crystal structures of ERα and ERβ with bound genistein, respectively). These features also included removal of chemical fragments that are considered to increase susceptibility to rapid metabolism, especially that by the cytochrome P450 (CYP) pathway. The final feature involved incorporation of chemical characteristics previously shown to be associated with effective drugs and which together generally impart more favorable pharmacologic properties, including those described by Lipinski […]
Supplementary Note 2. […] Three […]
different assays systems were employed.
Kinase assay system #1. The KINOMEscan™ assay (Ambit Biosciences). This assay evaluates 442 kinases, including 400 distinct parental kinases plus mutants known to alter activity or responsiveness. […]

MMPs: 1,2,3, and 7-16 = experiment: Qiagen extracellular matrix/adhesion and metastasis/invasion expression arrays; assay type: cell-based, human; settings: PC3-M cells, three days
Description: Response to Reviewers' comments:
We wish to thank the reviewers for their consideration of our manuscript. Their review and critiques have served to improve this manuscript. Below is a point-by-point response to reviewer critiques.
Changes in the manuscript and associated documents are underlined.
General comments: Much of the data is compelling and would be of interest to readers of Nature Communications, but some experimental procedures require a more thorough description and some of the data are too cursory to support the authors’ mechanistic conclusions...
Response. Thank you for your comprehensive and in formed review, we are encouraged that you felt that our data would be compelling to the readers of Nature Communications. In our revised manuscript as well as below, you will find that we have provided the requested clarifications, expanded descriptions and additional experiments requested.
1. Does the compound (herein abbreviated as ‘46’) have any impact on MMPs or other matrix-destroying activities? […] We did in fact suspect that this may be contributing to KBU2046’s anti-invasion efficacy, and as such we evaluated an entire panel of MMPs as part of two separate expression arrays. […]
2. […] Description of this experiment in both the figure legend and in Supplemental Methods is too cursory for the reader to understand how the treatment plan was selected. […]

RAF1 = experiment: In vitro kinase assay of RAF1, HSP90β and CDC37; assay type: biochemical; settings: purified recombinant RAF1, HSP90β, CDC37
Method: MEK4/MKK4/MAP2K4 in vitro kinase assay was performed as described by us[45].

O=C1c2ccccc2OCC1c1ccc(F)cc1 (racemic) [KBU2046, (±)-3(4-fluorophenyl)chroman-4-one]
anti-invasion efficacy under TGFβ stimulation (PC3-M cells; PC3-M cells pretreated, then ± TGFβ): retains efficacy
anti-invasion activity (PC3-M cells; PC3-M cells, 10 µM compound, 3 days): anti-invasive efficacy at least equal
inhibition of protein kinases and phosphatases [1]: failure to inhibit
expression of MMPs and other array members (MMPs: 1,2,3, and 7-16): no significant differences
phosphorylation of RAF1 Ser338 (RAF1): decreased phosphorylation of RAF1’s Ser338 activation motif
